The values that follow come from patent publication US8575168B2, “Compounds and compositions as modulators of GPR119 activity” (IRM LLC, priority 2009, dated 2013).

This assay concerns the target T1, human GPR119 (Homo sapiens, UniProt Q8TDV5).
T1 construct: expressed in transfected cells
T1 sequence (Q8TDV5 1-335): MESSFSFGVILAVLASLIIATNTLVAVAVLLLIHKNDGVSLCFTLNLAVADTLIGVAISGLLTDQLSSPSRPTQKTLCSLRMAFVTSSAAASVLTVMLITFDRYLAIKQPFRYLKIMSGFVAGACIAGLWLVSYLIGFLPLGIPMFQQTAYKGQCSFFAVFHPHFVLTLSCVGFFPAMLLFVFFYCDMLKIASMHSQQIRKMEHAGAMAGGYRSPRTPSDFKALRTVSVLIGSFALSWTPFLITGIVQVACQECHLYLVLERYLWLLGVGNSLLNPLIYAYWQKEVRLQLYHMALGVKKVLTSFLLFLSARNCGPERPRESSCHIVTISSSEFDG
Description: Cyclic AMP Assay in Stable Cell Line (HTRF). The class given is cell-based. The conditions noted are these: Flp-In-CHO-hGPR119 cells, intracellular cAMP, 30 minutes at 37° C., 1 mM IBMX. The procedure: Flp-In-CHO cells (Invitrogen, Cat. #R758-07) are maintained in Ham's F12 medium supplemented with 10% fetal bovine serum, 1% antibiotic mixture and 2 mM L-glutamine. The cells are transfected with a DNA mixture containing human GPR119 in pcDNA5/FRT vector and the pOG44 vector (1:9) using Fugene6 (Roche), according to the manufacturer's instruction. After 48 hours, the medium is changed to medium supplemented with 400 μg/ml hygromycin B to initiate the selection of stably transfected cells.
To test the activity of compounds of the invention, Flp-In-CHO-hGPR119 cells are harvested and resuspended in DMEM plus 3% lipid-depleted fetal bovine serum. Forth μl of cells are plated in 384 well plates at a density of 15,000 cells/well. IBMX (3-isobutyl-1-methyl-xanthine) is added to the cells to a final concentration of 1 mM, followed by the addition of 500 nl of the compound to be tested. The cells are incubated at 37° C. for 30 minutes. Equal volume (20 μl) of the HTRF reagents, anti-cAMP-Cryptate and cAMP-XL665, are added to the cells. The plates are incubated at room temperature for 1 hour and read on a HTRF reader according to the manufacturer's instruction.
In general terms: TR-FRET usually uses a lanthanide donor and a delayed reading to cut background.
With `CC(C)c1ccc(CN2CC(Oc3ccc(N4CCN(S(C)(=O)=O)CC4=O)nc3)C2)cc1` [Example A18], the concentration giving a half-maximal response (EC50) (as a rule, the concentration at which the effect is half-maximal) was 11 nM.

As to `CS(=O)(=O)N1CCC(c2cc(F)c(OC3CN(Cc4csc(C(F)(F)F)n4)C3)c(F)c2)CC1` [Example B19], the 50% effective concentration (EC50) stood at 448 nM.

`Cn1nc(C(F)(F)F)cc1CN1CC(Oc2c(F)cc(C3CCN(S(C)(=O)=O)CC3)cc2F)C1` [Example B15]: it took 97 nM to reach a half-maximal effect (EC50).

For `CCC(c1ccc(C(F)(F)F)cc1)N1CC(Oc2c(F)cc(C3CCN(S(C)(=O)=O)CC3)cc2F)C1` (stereo not drawn) [Example A25], the EC50 turned out to be 246 nM.

As for `CC(C)c1ccc(CN2CC(Oc3ccc(N4CCN(C(=O)OCc5ccccc5)CC4=O)nc3)C2)cc1` [Example A2, Benzyl 4-(5-(1-(4-isopropylbenzyl)azetidin-3-yloxy)pyridin-2-yl)-3-oxopiperazine-1-carboxylate], the 50% effective concentration (EC50) was 979 nM.

In the case of `CS(=O)(=O)N1CCC(c2cc(F)c(OC3CCN(Cc4noc(C(F)(F)F)n4)CC3)c(F)c2)CC1` [Example B22], the midpoint of the response, the EC50, lay at 443 nM. Against the preceding molecule, the EC50 is about 2.2-fold lower.

`CC(F)(F)c1noc(CN2CCC(Oc3c(F)cc(C4CCN(S(C)(=O)=O)CC4)cc3F)CC2)n1` [Example B3, 5-((4-(2,6-difluoro-4-(1-(methylsulfonyl)piperidin-4-yl)phenoxy)piperidin-1-yl)methyl)-3-(1,1-difluoroethyl)-1,2,4-oxadiazole] yielded an EC50 of 16 nM.

Molecule `CS(=O)(=O)N1CCC(c2cc(F)c(OC3CN(Cc4nc(C5CC5)no4)C3)c(F)c2)CC1` [Example B10] showed a concentration giving a half-maximal response (EC50) of 131 nM.

Consider `CS(=O)(=O)N1CCC(c2cc(F)c(OC3CN(Cc4cccc5ccccc45)C3)c(F)c2)CC1` [Example A31], for which the EC50 stood at 652 nM.

`CS(=O)(=O)N1CCN(c2cc(F)c(OC3CN(Cc4ccc(C(F)(F)F)cc4)C3)c(F)c2)C(=O)C1` [Example A33] gave a 50% effective concentration (EC50) of 331 nM.

As for `CC(C)c1ccc(CN2CC(Oc3cnc(N4CCN(S(C)(=O)=O)CC4)cn3)C2)cc1` [Example A11], the midpoint of the response, the EC50, lay at 22 nM.

For `COc1ccc(CN2CC(Oc3ccc(N4CCN(S(C)(=O)=O)CC4)nc3)C2)cc1` [Example A12], the EC50 worked out at 341 nM. Against the preceding molecule, the EC50 is about 16-fold higher.

On to `CS(=O)(=O)N1CCC(c2cc(F)c(OC3CCN(Cc4nc(C(F)F)no4)CC3)c(F)c2)CC1` [Example B5], for which the 50% effective concentration (EC50) was determined as 49 nM.

`CS(=O)(=O)N1CCC(c2cc(F)c(OC3CN(C(CO)c4ccc(C(F)(F)F)cc4)C3)c(F)c2)CC1` (stereo not drawn) [Example A29] gave a 50% effective concentration (EC50) of 1090 nM.

As to `CS(=O)(=O)N1CCC(c2cc(F)c(OC3CN(Cc4nc(C(F)(F)F)cs4)C3)c(F)c2)CC1` [Example B17], the EC50 is 74 nM.

In turn, `O=C(N1CC=C(c2cc(F)c(OC3CN(Cc4ccc(C(F)(F)F)cc4)C3)c(F)c2)CC1)C(F)(F)F` [Example A35] displayed a concentration for a half-maximal effect (EC50) of 688 nM.

The molecule `Cc1ccc(CN2CC(Oc3ccc(N4CCN(S(C)(=O)=O)CC4)nc3)C2)cc1` [Example A14] came in with a 50% effective concentration (EC50) of 238 nM.

In the case of `CS(=O)(=O)N1CCC(c2cc(F)c(OC3CCN(Cc4ccc(C(F)(F)F)nc4)CC3)c(F)c2)CC1` [Example A44], the EC50 worked out at 38 nM. This EC50 is about 6.3-fold lower than that of the molecule before.

Turning to `CS(=O)(=O)N1CCN(c2ccc(OC3CN(Cc4ccc(C(F)(F)F)cc4)C3)cn2)C(=O)C1` [Example A17], the response was half-maximal at 26 nM (EC50).

On to `O=S(=O)(C1CCNCC1)N1CCC(c2cc(F)c(OC3CN(Cc4ccc(C(F)(F)F)cc4)C3)c(F)c2)CC1` [Example A38], for which the EC50 came out at 458 nM.

In turn, `CC(C)c1ccc(CN2CC(Oc3cnc(N4CCN(C(=O)OCc5ccccc5)CC4)cn3)C2)cc1` [Example A10] displayed an EC50 of 666 nM.

Regarding `O=S(=O)(C1CCOCC1)N1CCC(c2cc(F)c(OC3CN(Cc4ccc(C(F)(F)F)cc4)C3)c(F)c2)CC1` [Example A36], the EC50 was 28 nM.

`CC(C)c1noc(CN2CCC(Oc3c(F)cc(C4CCN(S(C)(=O)=O)CC4)cc3F)CC2)n1` [Example B24] yielded an EC50 of 6 nM.

On to `CC1(Oc2c(F)cc(C3CCN(S(C)(=O)=O)CC3)cc2F)CN(Cc2ccc(C(F)(F)F)cc2)C1` [Example C3], for which the EC50 was 644 nM.

As for `CCCS(=O)(=O)N1CCN(c2ccc(OC3CN(Cc4ccc(C(F)(F)F)cc4)C3)cn2)C(=O)C1` [Example A20], a half-maximal response (EC50) required 9 nM.

`CC(C)(C)OC(=O)N1CCC(S(=O)(=O)N2CCC(c3cc(F)c(OC4CN(Cc5ccc(C(F)(F)F)cc5)C4)c(F)c3)CC2)CC1` [Example A37] came in with an EC50 of 325 nM.

For `CC(C)c1noc(CN2CC(Oc3c(F)cc(C4CCN(S(C)(=O)=O)CC4)cc3F)C2)n1` [Example B9], the concentration giving a half-maximal response (EC50) turned out to be 76 nM.

Regarding `Cn1nc(C(F)(F)F)cc1CN1CCC(Oc2c(F)cc(C3CCN(S(C)(=O)=O)CC3)cc2F)CC1` [Example B14], it took 70 nM to reach a half-maximal effect (EC50).

As to `CS(=O)(=O)N1CCN(c2cc(F)c(OC3CN(Cc4ccc(C(F)(F)F)cc4)C3)c(F)c2)CC1` [Example A32], the EC50 was 145 nM.

Molecule `CS(=O)(=O)N1CCC(c2cc(F)c(OC3CN(Cc4nc(C(F)(F)F)no4)C3)c(F)c2)CC1` [Example B12] displayed a half-maximal effective concentration (EC50) of 55 nM.

On to `CC(Cc1ccc(C(F)(F)F)cc1)N1CC(Oc2c(F)cc(C3CCN(S(C)(=O)=O)CC3)cc2F)C1` (stereo not drawn) [Example A24], for which the 50% effective concentration (EC50) came out at 177 nM.

As for `CS(=O)(=O)N1CCC(c2c(F)cc(OC3CCN(Cc4nc(C(F)(F)F)no4)CC3)cc2F)CC1` [Example B29], the response was half-maximal at 50 nM (EC50).

`CS(=O)(=O)N1CCC(c2cc(F)c(OC3CCN(Cc4csc(C(F)(F)F)n4)CC3)c(F)c2)CC1` [Example B18] had an EC50 of 52 nM.

As for `CS(=O)(=O)N1CCC(c2cc(F)c(OC3CCN(Cc4ccc(C(F)(F)F)cc4)CC3)c(F)c2)CC1` [Example A5], the EC50 was 9 nM.

Molecule `CCCS(=O)(=O)N1CCN(c2ccc(OC3CN(Cc4ccc(C(F)(F)F)cc4)C3)cn2)CC1` [Example A21] showed a concentration giving a half-maximal response (EC50) of 39 nM.

In turn, `CS(=O)(=O)N1CCN(c2cnc(OC3CN(Cc4ccc(OC(F)(F)F)cc4)C3)cn2)C(=O)C1` [Example A4, 4-(methylsulfonyl)-1-(5-(1-(4-(trifluoromethoxy)benzyl)azetidin-3-yloxy)pyrazin-2-yl)piperazin-2-one] had an EC50 of 12 nM.

With `CS(=O)(=O)N1CCC(c2cc(F)c(OC3CCN(Cc4nc(C(F)(F)F)no4)CC3)cc2F)CC1` [Example B28], the EC50 was 5 nM. Against the preceding molecule, the EC50 is about 2.4-fold lower.

For the molecule `CS(=O)(=O)N1CCC(c2cc(F)c(OC3CN(Cc4ncc(C(F)(F)F)cn4)C3)c(F)c2)CC1` [Example A27], the concentration for a half-maximal effect (EC50) worked out at 764 nM.

In turn, `CS(=O)(=O)N1CCC(c2ccc(OC3CCN(Cc4nc(C(F)(F)F)no4)CC3)c(F)c2)CC1` [Example B6] came in with an EC50 of 37 nM.

In turn, `CC(F)(F)c1noc(CN2CC(Oc3c(F)cc(C4CCN(S(C)(=O)=O)CC4)cc3F)C2)n1` [Example B13] returned an EC50 of 108 nM.

`Cn1nc(C(F)(F)F)nc1CN1CC(Oc2c(F)cc(C3CCN(S(C)(=O)=O)CC3)cc2F)C1` [Example B21]: the 50% effective concentration (EC50) came out at 244 nM.

`CC(c1nc(C(F)(F)F)no1)N1CCC(Oc2c(F)cc(C3CCN(S(C)(=O)=O)CC3)cc2F)CC1` (stereo not drawn) [Example B30] registered a concentration for a half-maximal effect (EC50) of 78 nM.

`Cn1nc(C(F)(F)F)nc1CN1CCC(Oc2c(F)cc(C3CCN(S(C)(=O)=O)CC3)cc2F)CC1` [Example B20] registered a half-maximal effective concentration (EC50) of 208 nM.

Consider `CS(=O)(=O)N1CCN(c2ccc(OC3CN(Cc4ccc(OC(F)(F)F)cc4)C3)cn2)CC1` [Example A8], for which a half-maximal effect (EC50) was put at 70 nM.

Molecule `CC(C)(C)c1noc(CN2CC(Oc3c(F)cc(C4CCN(S(C)(=O)=O)CC4)cc3F)C2)n1` [Example B8] returned an EC50 of 286 nM.
